The text below walks through data of publication PMC5596636 (ACS chemical neuroscience, 2016).

Each structure is given as a SMILES string.

Assay [1] concerns the target mMC3R (Mus musculus, UniProt P33033). Kind of assay: cAMP-based β-galactosidase reporter agonist assay in HEK293 cells, mMC3R. The note with it: for mMC3R fold difference: EC50 of substituted peptide divided by EC50 of NDP-MSH, potency loss.
Assay [2] deals with T1, mMC1R (Mus musculus, UniProt Q01727). Kind of assay: cAMP-based β-galactosidase reporter agonist assay in HEK293 cells, mMC1R. The settings on record: potency loss.
Assay [3] deals with mMC4R (Mus musculus, UniProt P56450). Kind of assay: cAMP-based β-galactosidase reporter agonist assay in HEK293 cells, mMC4R. The note with it: EC50 of substituted peptide divided by EC50 of NDP-MSH; potency loss.
Assay [4] deals with mMC5R (Mus musculus, UniProt P41149). Kind of assay: cAMP-based β-galactosidase reporter agonist assay in HEK293 cells, mMC5R. The note with it: EC50 of substituted peptide divided by EC50 of NDP-MSH; potency loss.
Assay [5] relates to rMC3R. The note with it: HEK293 cells expressing the rMC3R; relative to α-MSH; cited from earlier work.
For assay [6], the target named is T1, mMC1R. The settings on record: B16 murine melanoma cells; relative to α-MSH; cited from earlier work.
Assay [7] has as its target T1, mMC1R. The settings on record: B16 murine melanoma cells; relative to α-MSH; cited from earlier work. This is another data set of the same source.
Setting [8] is: EC50 of substituted peptide divided by EC50 of NDP-MSH.

T1 sequence (Q01727 whole entry): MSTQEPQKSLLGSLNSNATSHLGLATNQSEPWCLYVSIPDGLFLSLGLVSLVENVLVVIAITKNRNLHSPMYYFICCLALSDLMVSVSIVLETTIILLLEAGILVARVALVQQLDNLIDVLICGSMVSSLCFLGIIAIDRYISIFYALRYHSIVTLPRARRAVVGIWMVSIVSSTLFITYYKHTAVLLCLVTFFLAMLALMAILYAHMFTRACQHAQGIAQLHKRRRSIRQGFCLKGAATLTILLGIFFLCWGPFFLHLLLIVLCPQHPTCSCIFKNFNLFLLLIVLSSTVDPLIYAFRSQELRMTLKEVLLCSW
mMC4R, sequence (P56450 whole entry): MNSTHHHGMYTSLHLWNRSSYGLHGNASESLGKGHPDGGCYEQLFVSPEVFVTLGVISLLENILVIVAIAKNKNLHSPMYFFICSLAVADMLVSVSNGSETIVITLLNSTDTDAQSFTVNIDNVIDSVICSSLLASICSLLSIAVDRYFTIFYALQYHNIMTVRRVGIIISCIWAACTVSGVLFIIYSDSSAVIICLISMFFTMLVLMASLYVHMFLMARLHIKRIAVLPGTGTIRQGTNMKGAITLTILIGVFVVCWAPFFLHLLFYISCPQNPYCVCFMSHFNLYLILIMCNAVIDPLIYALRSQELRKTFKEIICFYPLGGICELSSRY
mMC3R, sequence (P33033 whole entry): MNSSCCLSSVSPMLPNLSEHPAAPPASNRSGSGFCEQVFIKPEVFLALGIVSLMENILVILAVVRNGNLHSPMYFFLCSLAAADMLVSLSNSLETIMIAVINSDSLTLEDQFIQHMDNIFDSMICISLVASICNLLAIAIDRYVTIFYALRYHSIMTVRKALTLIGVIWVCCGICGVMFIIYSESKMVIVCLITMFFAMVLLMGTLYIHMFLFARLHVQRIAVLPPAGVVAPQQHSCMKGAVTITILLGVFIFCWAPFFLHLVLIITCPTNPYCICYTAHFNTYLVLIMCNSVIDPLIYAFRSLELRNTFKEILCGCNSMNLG
mMC5R, sequence (P41149 whole entry): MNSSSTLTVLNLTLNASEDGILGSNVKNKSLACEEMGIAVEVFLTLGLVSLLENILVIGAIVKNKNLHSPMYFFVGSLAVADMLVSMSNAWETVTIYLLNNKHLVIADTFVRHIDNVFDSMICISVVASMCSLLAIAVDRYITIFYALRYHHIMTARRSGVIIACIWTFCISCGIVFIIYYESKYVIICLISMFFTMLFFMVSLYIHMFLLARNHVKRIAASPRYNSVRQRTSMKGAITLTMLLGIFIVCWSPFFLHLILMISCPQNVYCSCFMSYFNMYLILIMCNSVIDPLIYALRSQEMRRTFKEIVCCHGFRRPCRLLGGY

In turn, `CCCC[C@H](NC(=O)[C@H](CO)NC(=O)[C@H](C)NC(=O)[C@H](CO)NC(C)=O)C(=O)N[C@@H](CCC(=O)O)C(=O)N[C@@H](Cc1c[nH]cn1)C(=O)N[C@H](Cc1ccccc1)C(=O)N[C@@H](CCCNC(=N)N)C(=O)N[C@@H](Cc1c[nH]c2ccccc12)C(=O)NCC(=O)N[C@@H](CCCCN)C(=O)N1CCC[C@H]1C(=O)N[C@H](C(N)=O)C(C)C` [[Ala^2]NDP-MSH, Ac-Ser-Ala-Ser-Nle-Glu-His-DPhe-Arg-Trp-Gly-Lys-Pro-Val-NH2] returned an EC50 in assay [1] of 0.22 ± 0.06 nM.
For `CCCC[C@H](NC(=O)[C@H](CO)NC(=O)[C@H](Cc1ccc(O)cc1)NC(=O)[C@H](CO)NC(C)=O)C(=O)N[C@@H](CCC(=O)O)C(=O)N[C@@H](Cc1c[nH]cn1)C(=O)N[C@@H](C)C(=O)N[C@@H](CCCNC(=N)N)C(=O)N[C@@H](Cc1c[nH]c2ccccc12)C(=O)NCC(=O)N[C@@H](CCCCN)C(=O)N1CCC[C@H]1C(=O)N[C@H](C(N)=O)C(C)C` [[Ala^7]NDP-MSH], the mMC1R fold difference in assay [2] (setting [8]) came to 2350 fold. Moreover, the mMC4R fold difference in assay [3] came to 2370 fold. The same molecule showed a mMC5R fold difference in assay [4] of 180 fold. In assay [1], this molecule showed a 50% effective concentration (EC50) of 260 ± 64 nM and a mMC3R fold difference of 1080 fold.
For the molecule `CSCC[C@H](NC(=O)[C@H](CO)NC(=O)[C@H](Cc1ccc(O)cc1)NC(=O)[C@H](CO)NC(C)=O)C(=O)N[C@@H](CCC(=O)O)C(=O)N[C@@H](Cc1c[nH]cn1)C(=O)N[C@@H](Cc1ccccc1)C(=O)N[C@@H](CCCNC(=N)N)C(=O)N[C@@H](Cc1c[nH]c2ccccc12)C(=O)NCC(=O)N[C@@H](C)C(=O)N1CCC[C@H]1C(=O)N[C@H](C(N)=O)C(C)C` [[Ala^11]α-MSH], the response in assay [1] was half-maximal at 49 ± 33 nM (EC50).
In assay [2] (EC50 of substituted peptide divided by EC50 of α-MSH), `CSCC[C@H](NC(=O)[C@H](CO)NC(=O)[C@H](C)NC(=O)[C@H](CO)NC(C)=O)C(=O)N[C@@H](CCC(=O)O)C(=O)N[C@@H](Cc1c[nH]cn1)C(=O)N[C@@H](Cc1ccccc1)C(=O)N[C@@H](CCCNC(=N)N)C(=O)N[C@@H](Cc1c[nH]c2ccccc12)C(=O)NCC(=O)N[C@@H](CCCCN)C(=O)N1CCC[C@H]1C(=O)N[C@H](C(N)=O)C(C)C` [[Ala^2]α-MSH] returned a mMC1R fold difference of 7 fold. In assay [5], the “fold decreased binding affinity at the rMC3R” value was 7 fold. Moreover, the “fold decreased tyrosinase potency at the mMC1R” value in assay [6] was “equipotent”. The “fold decreased binding affinity at the mMC1R” value in assay [7] is “equipotent”. In assay [1], this molecule displayed an EC50 of 6.42 ± 2.56 nM. In addition, the “fold more potent at the mMC3R compared to α-MSH” value in assay [1] (increased potency relative to α-MSH) is reported as 4 fold.
Consider `CCCC[C@H](NC(=O)[C@H](CO)NC(=O)[C@H](Cc1ccc(O)cc1)NC(=O)[C@H](CO)NC(C)=O)C(=O)N[C@@H](CCC(=O)O)C(=O)N[C@@H](Cc1c[nH]cn1)C(=O)N[C@H](Cc1ccccc1)C(=O)N[C@@H](CCCNC(=N)N)C(=O)N[C@@H](Cc1c[nH]c2ccccc12)C(=O)NCC(=O)N[C@@H](C)C(=O)N1CCC[C@H]1C(=O)N[C@H](C(N)=O)C(C)C` [[Ala^11]NDP-MSH, Ac-Ser-Tyr-Ser-Nle-Glu-His-DPhe-Arg-Trp-Gly-Ala-Pro-Val-NH2], for which the mMC1R fold difference result in assay [2] (setting [8]) is on record as “unaltered”. Further, the mMC4R fold difference result in assay [3] was “unaltered”. For the same molecule, the mMC5R fold difference entry in assay [4] is recorded as “unaltered”. In assay [1], the concentration for a half-maximal effect (EC50) is 0.17 ± 0.02 nM and the mMC3R fold difference result is reported as “unaltered”.
Turning to `CSCC[C@H](NC(=O)[C@H](CO)NC(=O)[C@H](Cc1ccc(O)cc1)NC(=O)[C@H](CO)NC(C)=O)C(=O)N[C@@H](CCC(=O)O)C(=O)N[C@@H](Cc1c[nH]cn1)C(=O)N[C@@H](Cc1ccccc1)C(=O)N[C@@H](CCCNC(=N)N)C(=O)N[C@@H](Cc1c[nH]c2ccccc12)C(=O)N[C@@H](C)C(=O)N[C@@H](CCCCN)C(=O)N1CCC[C@H]1C(=O)N[C@H](C(N)=O)C(C)C` [[Ala^10]α-MSH], the EC50 in assay [1] was 33 ± 11 nM.
Regarding `CCCC[C@H](NC(=O)[C@H](CO)NC(=O)[C@H](Cc1ccc(O)cc1)NC(=O)[C@H](CO)NC(C)=O)C(=O)N[C@@H](CCC(=O)O)C(=O)N[C@@H](Cc1c[nH]cn1)C(=O)N[C@H](Cc1ccccc1)C(=O)N[C@@H](CCCNC(=N)N)C(=O)N[C@@H](Cc1c[nH]c2ccccc12)C(=O)N[C@@H](C)C(=O)N[C@@H](CCCCN)C(=O)N1CCC[C@H]1C(=O)N[C@H](C(N)=O)C(C)C` [[Ala^10]NDP-MSH, Ac-Ser-Tyr-Ser-Nle-Glu-His-DPhe-Arg-Trp-Ala-Lys-Pro-Val-NH2], the mMC1R fold difference result in assay [2] (setting [8]) is given as “unaltered”. The mMC4R fold difference result in assay [3] is given as “unaltered”. Also, the mMC5R fold difference entry in assay [4] is reported as “unaltered”. For the same molecule, in assay [1], a half-maximal response (EC50) required 0.13 ± 0.06 nM and the mMC3R fold difference result is reported as “unaltered”.
Molecule `CCCC[C@H](NC(=O)[C@H](C)NC(=O)[C@H](Cc1ccc(O)cc1)NC(=O)[C@H](CO)NC(C)=O)C(=O)N[C@@H](CCC(=O)O)C(=O)N[C@@H](Cc1c[nH]cn1)C(=O)N[C@H](Cc1ccccc1)C(=O)N[C@@H](CCCNC(=N)N)C(=O)N[C@@H](Cc1c[nH]c2ccccc12)C(=O)NCC(=O)N[C@@H](CCCCN)C(=O)N1CCC[C@H]1C(=O)N[C@H](C(N)=O)C(C)C` [[Ala^3]NDP-MSH, Ac-Ser-Tyr-Ala-Nle-Glu-His-DPhe-Arg-Trp-Gly-Lys-Pro-Val-NH2] displayed an EC50 in assay [1] of 0.34 ± 0.08 nM.
As for `CC(=O)N[C@@H](CO)C(=O)N[C@@H](Cc1ccc(O)cc1)C(=O)N[C@@H](CO)C(=O)N[C@@H](C)C(=O)N[C@@H](CCC(=O)O)C(=O)N[C@@H](Cc1c[nH]cn1)C(=O)N[C@H](Cc1ccccc1)C(=O)N[C@@H](CCCNC(=N)N)C(=O)N[C@@H](Cc1c[nH]c2ccccc12)C(=O)NCC(=O)N[C@@H](CCCCN)C(=O)N1CCC[C@H]1C(=O)N[C@H](C(N)=O)C(C)C` [[Ala^4]NDP-MSH, Ac-Ser-Tyr-Ser-Ala-Glu-His-DPhe-Arg-Trp-Gly-Lys-Pro-Val-NH2], the mMC1R fold difference in assay [2] (setting [8]) was 5 fold. Moreover, in assay [3], the mMC4R fold difference entry is listed as “no differences”. Moreover, in assay [4], the mMC5R fold difference result is “no differences”. Besides, in assay [1], the concentration for a half-maximal effect (EC50) came to 0.36 ± 0.04 nM and the mMC3R fold difference entry was “no differences”.
In the case of `CCCC[C@H](NC(=O)[C@H](CO)NC(=O)[C@H](Cc1ccc(O)cc1)NC(=O)[C@H](C)NC(C)=O)C(=O)N[C@@H](CCC(=O)O)C(=O)N[C@@H](Cc1c[nH]cn1)C(=O)N[C@H](Cc1ccccc1)C(=O)N[C@@H](CCCNC(=N)N)C(=O)N[C@@H](Cc1c[nH]c2ccccc12)C(=O)NCC(=O)N[C@@H](CCCCN)C(=O)N1CCC[C@H]1C(=O)N[C@H](C(N)=O)C(C)C` [[Ala^1]NDP-MSH, Ac-Ala-Tyr-Ser-Nle-Glu-His-DPhe-Arg-Trp-Gly-Lys-Pro-Val-NH2], in assay [1], the response was half-maximal at 0.16 ± 0.017 nM (EC50).
In the case of `CCCC[C@H](NC(=O)[C@H](CO)NC(=O)[C@H](Cc1ccc(O)cc1)NC(=O)[C@H](CO)NC(C)=O)C(=O)N[C@@H](CCC(=O)O)C(=O)N[C@@H](Cc1c[nH]cn1)C(=O)N[C@H](Cc1ccccc1)C(=O)N[C@@H](CCCNC(=N)N)C(=O)N[C@@H](Cc1c[nH]c2ccccc12)C(=O)NCC(=O)N[C@@H](CCCCN)C(=O)N[C@@H](C)C(=O)N[C@H](C(N)=O)C(C)C` [[Ala^12]NDP-MSH, Ac-Ser-Tyr-Ser-Nle-Glu-His-DPhe-Arg-Trp-Gly-Lys-Ala-Val-NH2], the mMC1R fold difference in assay [2] (setting [8]) is reported as 4 fold. The molecule also gave a mMC4R fold difference in assay [3] of 5 fold. The half-maximal effective concentration (EC50) in assay [1] amounted to 0.36 ± 0.06 nM.
On to `CSCC[C@H](NC(=O)[C@H](CO)NC(=O)[C@H](Cc1ccc(O)cc1)NC(=O)[C@H](CO)NC(C)=O)C(=O)N[C@@H](CCC(=O)O)C(=O)N[C@@H](Cc1c[nH]cn1)C(=O)N[C@@H](Cc1ccccc1)C(=O)N[C@@H](CCCNC(=N)N)C(=O)N[C@@H](Cc1c[nH]c2ccccc12)C(=O)NCC(=O)N[C@@H](CCCCN)C(=O)N1CCC[C@H]1C(=O)N[C@@H](C)C(N)=O` [[Ala^13]α-MSH], for which the EC50 in assay [1] was 42 ± 26 nM.
As to `CCCC[C@H](NC(=O)[C@H](CO)NC(=O)[C@H](Cc1ccc(O)cc1)NC(=O)[C@H](CO)NC(C)=O)C(=O)N[C@@H](CCC(=O)O)C(=O)N[C@@H](Cc1c[nH]cn1)C(=O)N[C@H](Cc1ccccc1)C(=O)N[C@@H](CCCNC(=N)N)C(=O)N[C@@H](Cc1c[nH]c2ccccc12)C(=O)NCC(=O)N[C@@H](CCCCN)C(=O)N1CCC[C@H]1C(=O)N[C@@H](C)C(N)=O` [[Ala^13]NDP-MSH, Ac-Ser-Tyr-Ser-Nle-Glu-His-DPhe-Arg-Trp-Gly-Lys-Pro-Ala-NH2], in assay [2] (setting [8]), the mMC1R fold difference entry was “unaltered”. Further, the mMC4R fold difference entry in assay [3] is recorded as “unaltered”. For the same molecule, the mMC5R fold difference result in assay [4] is recorded as “unaltered”. In assay [1], the midpoint of the response, the EC50, lay at 0.3 ± 0.06 nM and the mMC3R fold difference entry was “unaltered”.
For the molecule `CSCC[C@H](NC(=O)[C@H](CO)NC(=O)[C@H](Cc1ccc(O)cc1)NC(=O)[C@H](CO)NC(C)=O)C(=O)N[C@@H](CCC(=O)O)C(=O)N[C@@H](Cc1c[nH]cn1)C(=O)N[C@@H](Cc1ccccc1)C(=O)N[C@@H](CCCNC(=N)N)C(=O)N[C@@H](Cc1c[nH]c2ccccc12)C(=O)NCC(=O)N[C@@H](CCCCN)C(=O)N[C@@H](C)C(=O)N[C@H](C(N)=O)C(C)C` [[Ala^12]α-MSH], in assay [7], the “fold decreased binding affinity at the mMC1R” value was 10 fold. Besides, a half-maximal response in assay [1] (EC50) required 43 ± 14 nM.
